Laboratory results taken from a melting point compilation (Tetko et al.; mined from patent text by program, amines drawn as free bases though some values may be those of a salt).

Row | SMILES | melting point
1 | CCOC(=O)C(Cc1ccc(OC)cc1)c1cc2cc(Br)ccc2s1 (stereo unspecified) | 62 to 65 °C
2 | Cn1c(-c2cccs2)nnc1S(C)=O (stereo unspecified) | 105 to 107 °C
3 | N#Cc1cnn(-c2ccc(CBr)cc2)n1 | 147 to 148 °C
4 | Cc1ccc(-c2ncc(C)cn2)cc1 | 122 to 123 °C
5 | CC(C)(C)OC(=O)COc1ccc(C(=O)O)cc1 | 119 to 121 °C
6 | CCOP(=O)(OCC)c1nc(NC(C)C)nc(NC(C)C)n1 | 91 to 94 °C
7 | CC(C)(C)OC(=O)Nc1ccc2ccccc2c1Br | 90 to 91 °C
8 | CCCn1nc(-c2ccc(O)cc2)c2cccc(-c3ccccc3)c21 | 171 to 172 °C
9 | CCOC(=O)C1=C(COCc2nnn(CCN)n2)NC(C)=C(C(=O)OC)C1c1ccccc1Cl (stereo unspecified) | 126 to 127 °C
10 | COc1cc(CNC(=O)c2ccc3n2Cc2ccccc2N(C(=O)CSc2ccc(Br)cc2)C3)ccc1O | 168 °C
11 | CC1(C)NC(C[PH](=O)O)C(C)(C)S1 (stereo unspecified) | 193 to 194 °C
12 | CCC(=O)c1cc(Br)no1 | 35 to 37 °C
13 | N#Cc1nn(-c2c(Cl)cc(C(F)(F)F)cc2Cl)cc1C1CC(=O)C1(Cl)Cl (stereo unspecified) | 118 to 120 °C
14 | Cc1nc(Cl)c2cc(C)oc2n1 | 47.6 to 48.1 °C
15 | CC(=O)Nc1ccc(NC(=O)N(C[C@H]2CC[C@H](CN(C(=O)Nc3ccc(NC(C)=O)cc3)C3CCCCC3)CC2)C2CCCCC2)cc1 | 228 to 231 °C
16 | O=C(O)c1ccc(-c2ccoc2)s1 | 147 °C
17 | C[C@@H](N(CCNC(=O)OC(C)(C)C)C(=O)c1ccc(C(F)(F)F)cc1)[C@](O)(Cn1cncn1)c1ccc(F)cc1F (relative stereo) | 135 to 143 °C
18 | CC(C)(CNC=O)c1ccc2nc(-c3c[nH]cn3)[nH]c2c1 | 240 to 246 °C
19 | Nc1ccc(-n2ccc(=O)cc2)cc1N | 257 to 260 °C
20 | CC(C)(C)C=NNC(=O)OCc1ccccc1 | 74 to 74.5 °C
21 | CC(C)(N)CCn1c(=O)oc2ccccc21 | 145 to 147 °C
22 | OCc1cc(F)c(CO)cc1F | 268 to 271 °C
23 | Nc1cc(C(=O)O)cc(SCc2ccccc2)c1Oc1ccccc1 | 159 to 161 °C

Row | SMILES | melting point
24 | CCc1ccc(-c2nc(COc3ccc(CCCn4ccnc4)cc3)co2)s1 | 57 to 58 °C
25 | CN1C(C(=O)Nc2ccccc(O)c2=O)=C(O)c2ccccc2S1(=O)=O | 294 to 296 °C
26 | O=C1CC(c2ccc(-c3ccc(OCc4ccc(Br)cc4)cc3)cc2)Cc2ccccc21 (stereo unspecified) | 191 °C
27 | CCOC(=N)c1cccc(Cc2ccccc2)c1 | 121 to 122 °C
28 | CC1(C)NC(=O)N(CC(CSc2ccc(-c3ccc(C(F)(F)F)cc3)cc2)N(O)C=O)C1=O (stereo unspecified) | 172 to 174 °C
29 | COC(=O)C1Cc2c([nH]c3ccccc23)C(c2ccoc2)N1 (stereo unspecified) | 130 °C
30 | CC(C)NC[C@H](O)COc1ccc(Cc2nc(Br)c[nH]2)cc1 | 125 to 127 °C
31 | CCCCC1=NC2(CCCC2)C(=O)N1Cc1ccc(-c2ccccc2S(=O)(=O)Nc2noc(C)c2C)c(CCC)c1 | 64 to 66 °C
32 | O=C1NC(=O)C(Cc2ccc(NC(=O)c3cc(=O)c4cc(Br)ccc4o3)cc2)S1 (stereo unspecified) | 281 to 285 °C
33 | CC(=O)OC1c2ccccc2-c2[nH]c(=O)c(=O)[nH]c21 (stereo unspecified) | > 300 °C
34 | O=[N+]([O-])c1cccc(O)c1CO | 97 to 99 °C
35 | N#CC(C(=O)c1ccc(Cl)cc1)=C1CCCN1C(=O)c1ccc(Cl)cc1 | 218 °C
36 | Cc1nc(-c2ccc(Cl)cc2)c(CBr)o1 | 75 to 76 °C
37 | C[Si](C)(C)C#CC1(OC(=O)c2ccccc2)C(COC(=O)c2ccc(Cl)cc2)OC(OC(=O)c2ccccc2)C1OC(=O)c1ccccc1 (stereo unspecified) | 63 to 66 °C
38 | O=C(O)c1cccc2c1CCc1cc(C(F)(F)F)ccc1S2 | 178 to 180 °C
39 | COC(=O)CN1CSC=C(N2C(=O)c3ccccc3C2=O)C1=O | 181 to 183 °C
40 | CC1=NN=C(c2ccc(NC=O)cc2)c2cc3c(cc2C1)OCO3 | 152 to 154 °C
41 | Cc1cn([C@@H]2C[C@H](O)[C@@H](O)[C@H]2O)c(=O)[nH]c1=O (racemic) | 201 to 202 °C
42 | COc1ccc2c(c1)C(=O)c1ccc(Nc3ccc(F)c(F)c3F)cc1CC2 | 128 °C
43 | CNC(=O)C(=O)CCCCCCSc1nc(-c2ccccc2)cs1 | 107 to 108 °C
44 | Cn1nc2c([N+](=O)[O-])cc3nc(O)c(O)nc3c2n1 | > 300 °C
45 | O=C(O)Cc1ccc(CNC(=O)C2Cc3ccccc3N2S(=O)(=O)c2ccc(-c3cccc(C(F)(F)F)c3)cc2)c(Cl)c1 (stereo unspecified) | 95 to 106 °C
46 | O=c1c2c(Cc3ccccc3)n[nH]c2c2cccnc2n1-c1ccccc1 | 305 to 308 °C

Row | SMILES | melting point
47 | Cc1ccccc1-c1ccc(C(=O)N2Cc3ccc(C(=O)NCc4cccc(C(F)(F)F)c4)n3Cc3ccccc32)cc1C | 171 to 173 °C
48 | CN1CCN(C2CC3C4CCC5CC6OC6CC5(C)C4CCC3(C)C2O)CC1 (stereo unspecified) | 149 to 153 °C
49 | CCCC(Cl)(Cl)C(NC(=O)c1ccc(Cl)cc1)NC(=NC#N)Nc1cccnc1 (stereo unspecified) | 192 to 193 °C
50 | COc1ccc2c(c1)C(CCCCNC(C)=O)=CCC2 | 79 to 81 °C
51 | CC1(C)N=C(c2ccccc2Cl)c2cc([N+](=O)[O-])cc(Cl)c2NC1=O | 121 °C
52 | O=C1N(Cc2ccc(C(F)(F)F)o2)c2cccc(Cl)c2C12COc1cc3c(cc12)CCO3 (stereo unspecified) | 166 to 169 °C
53 | COC(=O)CCCON1C(=O)c2ccccc2C1=O | 79 to 81 °C
54 | COc1ccc(C=C2NC(C(=O)Cc3cc(OC)c(OC)c(OC)c3)=Cc3ccccc32)cc1OC | 164 to 170 °C
55 | CN1CCC(c2c[nH]c3ccc(NC(=O)c4cc5ccccc5s4)nc23)CC1 | 202 to 204 °C
56 | CN(C)Cc1nnc2n1-c1ccc(Cl)cc1C(c1ccc(Cl)cc1)=[N+]([O-])C2 | 260 °C
57 | CN(C)C(=O)c1cc(CN2C(=O)C3(COc4cc5c(cc43)OCO5)c3ccccc32)oc1C(F)(F)F (stereo unspecified) | 96 to 98 °C
58 | BrCc1ccc2c(c1)CCO2 | 57 to 60 °C
59 | Cc1cccc2c1Sc1nccnc1N2 | 165 to 166 °C
60 | CCCCCCCOc1ccc(C2CC(CCCCCC)C(=O)O2)cc1 (stereo unspecified) | 45.9 to 47 °C
61 | CCCc1ccc(Oc2ccc3c(c2)C=C(C(=O)O)CCS3(=O)=O)cc1 | 147 to 149 °C
62 | O=C1SCc2c(Cl)c(Cl)c(Cl)c(Cl)c21 | 181 to 183 °C
63 | CSC(=S)NCc1cc(=O)c(OC(c2ccccc2)c2ccccc2)cn1OC(c1ccccc1)c1ccccc1 | 176 to 178 °C
64 | Cc1cc2c(cc1-c1ccncc1)C(=O)C(=O)N2 | 292 to 294 °C
65 | Cc1ccsc1C(=O)Nc1ccc(C(=O)N2Cc3cccn3Cc3ccccc32)cc1 | 232 to 235 °C
66 | Cc1c(C)c2c(c(C)c1NC(=O)CC(C)(C)C)C(c1ccccc1)C(C)(C)O2 (stereo unspecified) | 214 to 215 °C
67 | CCc1nc(OC)c(NC(=O)N2CCN(c3cc(OC)cc(OC)c3)CC2)cc1C | 115 to 116 °C
68 | CC(OCc1cc2nc(Cl)ccc2n1S(=O)(=O)c1ccc2nc(N)sc2c1)C(=O)O (stereo unspecified) | 218 to 220 °C
69 | Clc1cccc(OCC(Cn2ccnc2)Sc2c(Cl)cccc2Cl)c1Cl (stereo unspecified) | 135 to 136 °C

Further lines, results first:

Row | melting point | SMILES
70 | 114 to 115 °C | Cc1c(C)c2c(c(C)c1N)CC(C)(CN1CCOCC1)O2 (stereo unspecified)
71 | 64 to 64.5 °C | CCCCCCCCCCCCCCCCC[C@@H](O)CC(=O)OC
72 | 219 to 221 °C | COc1ccc(S(=O)(=O)N2c3ccc(Br)cc3-c3ccccc3C2C)cc1C (stereo unspecified)
73 | 107 to 109 °C | CC(=O)NCC(=O)c1cccc(Cl)c1Cl
74 | 108 to 115 °C | CC(C)CC(=O)N[C@@H](CC(C)C)C(=O)N[C@@H](Cc1ccccc1)C(=O)CSCc1ccco1
75 | 97 to 99 °C | COC(=O)c1cccnc1Oc1ccc(F)cc1
76 | 121 to 124 °C | COc1ccc2c(c1)CCC1C2CCC2(C)C(O)CCC12 (stereo unspecified)
77 | 159 to 161 °C | COc1ccc(-c2cc(C)cn2-c2ccc(S(C)(=O)=O)cc2)cc1
78 | 106 to 108 °C | CC(C)(C)NS(=O)(=O)c1ccccc1CCOS(C)(=O)=O
79 | 198 to 201 °C | COc1ccc(-c2cn[nH]c2N)cc1
80 | 70 to 72 °C | CCC1Cc2cc(C(C)C(=O)O)ccc2O1 (stereo unspecified)
81 | 151 to 152 °C | CC(CCCC(C)(C)O)C1CCC2C3=CC=C4CCCC(O)C4(C)C3CCC21C (stereo unspecified)
82 | 85 °C | O=C(c1ccccc1)c1ccccc1Nc1ncccc1[N+](=O)[O-]
83 | 137 to 138 °C | CO/N=C(\C)c1cccc(Nc2c3ccccc3nc3occc23)c1
84 | 200 to 203 °C | CN1CCN(c2cccc(-c3cnn4c(N)c(-c5ccccc5Cl)cnc34)c2)CC1
85 | 112 to 113 °C | COc1cc(-c2ccc(Br)cc2)oc1-c1ccc(Br)cc1

Row | melting point | SMILES
86 | > 250 °C | O=c1[nH]c2cc(C(F)(F)F)ccc2n(CCc2ncc[nH]2)c1=O
87 | 153 to 155 °C | CCCCn1c(=O)n(O)c(=O)c2cc(F)c(N3CCCC3)nc21
88 | 170 to 173 °C | O=CN1CCN(c2nc3cccccc-3n2)CC1
89 | 79 to 81 °C | CCOC(=O)c1c[nH]n(Cc2ccccc2)c1=O
90 | 88 to 89 °C | Brc1ccc2c(c1)OC(c1ccccc1)(c1ccccc1)O2
91 | 75 to 77 °C | O=C(O)COCCc1ccc(Cl)cc1
92 | 295 to 300 °C | O=C(CC1CCCCC1)Nc1c(Cl)ccc2nc(N3CCC(c4nnn[nH]4)CC3)ccc12
93 | 148 to 154 °C | CCOC(=O)C(=O)CC(=O)C=Cc1ccc([N+](=O)[O-])cc1
94 | 97 to 98 °C | COC(=O)c1ccc(C#Cc2cncc(C3CCCN3C)c2)cc1 (stereo unspecified)
95 | 88 to 89 °C | CCCCc1nc(Cl)c(C=O)n1Cc1ccc([N+](=O)[O-])cc1
96 | 212 to 215 °C | CC(C)(C)OC(=O)N1CCn2c(c(C(=O)O)c(C#N)c2-c2ccccc2)C1
97 | 69 to 70 °C | OCc1nc(-c2ccccc2)ccc1Cl
98 | 254 to 255 °C | COc1ccc(CC2SC(=O)NC2=O)c2ccc(=O)n(C)c12 (stereo unspecified)
99 | 85 to 88 °C | CCC(CC)c1ccc(Cl)c2nc3n(c12)CCCCN3c1ccc(OC)nc1OC
100 | 173 °C | CCCCCCCCc1ccc(OCC(=O)Cn2c(C(=O)O)cc3ccccc32)cc1
101 | 87 to 89 °C | N#CC1CC(=O)c2cc(F)ccc2O1 (stereo unspecified)
